Source: patent US5614548A, “Quaternary amine containing ether or ester lipid derivatives and therapeutic compositions” (priority 1994, dated 1997)

What was measured:
HIV-1 [1] = assay: HIV-1 plaque assay, inhibitor added 60 minutes after infection; assay type: cell-based, human immunodeficiency virus type 1 (HIV-1); details: for IC50: Human immunodeficiency virus 1, CEM-SS monolayers, compound from sixty minutes after infection, N = 4, read-out: Inhibitory Concentration50 HIV-1 Plaque Formation; for anti-HIV-1 activity: HIV-1 plaque formation, in words
Source text: (§1) Dextran sulfate was used as a positive control. […] Plaques were counted at five days after infection.
(§2) By way of further background, in our assay HIV-1 syncytial plaques are seen as large, multicellular foci (10 to 25 nuclei/syncytium) that appear either brown and granular or clear. Since the number of HIV-1 syncytial plaques correlates with reverse transcriptase (RT) and p24 core antigen activity in the HIV-1 infected cell overlay fluids, the syncytial plaque assay can be used to quantify the amount of infectious virus. Reverse transcriptase activity was assayed according to a described procedure (B. J. Poeisz et al., Proc. Natl. Acad. Sci. (U.S.A.) […], 7415 (1980)). The activity of p24 core antigen induced by HIV-1 infection of CEM-SS cells was measured spectrophotometrically using the commercial Abbott EIA.
(§3) Compound E inhibited HIV-1 plaque count 43%, 83%, and 91% at concentrations of 0.2, 0.4, and 2.0 μM, respectively, compared to untreated controls. […] In other experiments addition of 0.2, 0.4 and 2.0 μM Compound E starting sixty minutes after HIV-1 infection inhibited HIV-1 plaque formation 28%, 59% and 97% respectively, compared to untreated controls.
(§4) Next investigated were the correlations of EL analog structure with anti-HIV-l and anti-cell growth. The experimental method used six serial two-fold dilutions of EL that spanned concentrations above and below a concentration that inhibits HIV-1 plaque count, cell growth (^3 H-TdR uptake into cell DNA) or in vitro PKC activity by 50% (inhibitory concentration50 =IC50) compared to an appropriate mock treated control. Table 7 summarizes data on IC50 of phosphorus and non-phosphorus compounds for HIV-1 plaque formation and cell growth.
^1 Serial 2fold dilutions of compounds are used. HIV1 plaque formatio
is measured in CEMSS cell monolayers by having compound present starting
sixty minutes after virus infection. IC50 values for HIV1 plaque
formation are x ± one SD., N = 4. CEMSS cell growth is measured in […]

CEM-SS cells = assay: CEM-SS cell growth (3H-TdR uptake); assay type: cell-based; details: Homo sapiens, 48 hours, N = 3, read-out: Inhibitory Concentration50 CEM-SS Cell Growth
Source text: as §4
formation are x ± one SD., N = 4. CEMSS cell growth is measured in
suspension cultures by treating the cells with compound for 48 hours at
37° C. and then adding 1 μCi of ^3 HTdR (S.A. = 20 Ci/mmole
for 8 hours at 37° C. to measure DNA synthesis. IC50 values
for CEMSS growth are x of a representative experiment, N = 3.

[2] = tested on: HL60 human leukemia cell line; assay: HL60 cell growth inhibition (trypan blue, 48 h); assay type: cell-based; details: Homo sapiens, HL-60, 48 h, HL60, 48 hours; read-out: ID50 (the source's name)
Procedure: A number of the compounds disclosed herein have been tested against the HL60 human leukemia cell line to assess their cytotoxic potential. These analogs were investigated in parallel with ET-18-OMe which was used as the reference compound. The methodologies used in this investigation were the same as described in A. Noseda, M. Berens, C. Piantadosi, and E. J. Modest, Lipids 22, 878-883, 1987. In brief, HL60 cells at a concentration of […] were incubated in wells with one milliliter medium with the experimental drug in parallel with the same concentration of cells with ET-18-OMe (standard) or EtOH (control). After 48 hours of incubation the cells were counted using the trypan blue dye exclusion technique to determine the effect of the drug on cell growth. The experimental drug and ET-18-OMe were tested at the same concentrations, e.g., 10, 5, 2.5 and 1.25 μM.

HIV-1 [3] = assay: HIV-1 plaque assay, inhibitor added 30 minutes before infection; assay type: cell-based, human immunodeficiency virus type 1 (HIV-1)
Source text: as §1, §2, §3

Protein Kinase C = Protein Kinase C activity (32P incorporation into histone); assay type: biochemical, human (HL-60 cells)
Procedure: PKC was prepared and assayed as described previously. See Daniel, L. W. et al., Biochem. Biophys. Res. Comm. 151, 291 (1988). In brief, HL-60 cells were grown in 75 milliliter flasks, harvested and washed with ice-cold normal saline. After centrifugation (600×g, 5 minutes, 4° Centigrade), the cell pellet was resuspended (20 mM Tris-HCl, pH 7.5, 2 mM EDTA, 10 mM EGTA, 50 mM 2-mercaptoethanol, 2 mM phenylmethylsulfonyl fluoride) and sonicated for 20 s with a stepped microprobe sonciator. Unbroken cells were removed by centrifugation as above and the supernatant centrifuged (65,000×g, 90 minutes, 4° Centigrade). The supernatant from this step (cytosol) was then fractionated on a 1×8 cm DEAE-Sephacel column after addition to sucrose to a final concentration of 10%. After equilibrating the column (20 mM Tris, pH 7.5, 0.2 mM EDTA, 0.2 mM EGTA, 50 mM 2-mercaptoethanol, 10% sucrose), the sample was loaded and unbound material was washed through with 40 milliliters of the equilibrating buffer. The PKC was eluted by a gradient from 0-0.5M NaCl in the buffer described above. Fractions of 1 milliliter were collected at 25 milliliters per hour and 0.05 milliliter aliquots assayed for PKC activity as described below. The fractions with the highest activity were pooled and used in further experiments.
The assays were done at pH 7.5 in a total volume of 0.25 milliliter and all tubes contained 25 mM Tris, 10 mM MgCl2, 40 μg per milliliter histone, 10 μM ATP (including 1 μCi of [gamma-^32 P]-ATP), 0.1 mM CaCl2, 20 μg per milliliter phosphatidylserine, 0.05 milliliter of the PKC preparation and 2.5 μM of oleoylacetylglycerol (OAG). Enzymatic activity was determined as the incorporation of ^32 P from [gamma-^32 P]-ATP) into histone in the presence of Ca^2+, phosphatidylserine, and OAG. Reactions were initiated by the addition of the enzyme preparation and halted after 20 minutes at 30° Centigrade by the addition of 0.05 milliliters of bovine serum albumin (10 milligrams per milliliter) and 1 milliliter 25% ice-cold trichloroacetic acid. The tubes were kept on ice and then filtered in a millipore vacuum box using Millipore® HA filters and washed with 25% trichloroacetic acid. The radioactivity bound to the filters was determined by scintillation spectrometry in 5 milliliters Budget Solve®. […] The analog to be tested was dissolved in ethanol, and added directly into the reaction mixture before the addition of PKC. As a control, 0.1% ethanol was included in the samples with the enzyme but with no inhibitor.

Compound	IC50 (HIV-1 [1]) [µM]	IC50 (CEM-SS cells) [µM]	IC50 [2] [µM]	inhibition at 0.2 µM (HIV-1 [3]; Human immunodeficiency virus 1, 0.2 μM, 30 minutes before infection, Table 6) [%]	inhibition at 0.4 µM (HIV-1 [3]; Human immunodeficiency virus 1, 0.4 μM, 30 minutes before infection, Table 6) [%]	inhibition at 2 µM (HIV-1 [3]; Human immunodeficiency virus 1, 2.0 μM, 30 minutes before infection, Table 6) [%]	inhibition at 0.2 µM (HIV-1 [3]; Human immunodeficiency virus 1, HIV-1 plaque formation, 0.2 μM, Table 5) [%]	inhibition at 0.4 µM (HIV-1 [3]; Human immunodeficiency virus 1, HIV-1 plaque formation, 0.4 μM, Table 5, read-out: Inhibition (%)) [%]	inhibition at 2 µM (HIV-1 [3]; Human immunodeficiency virus 1, HIV-1 plaque formation, 2 μM, Table 5) [%]	antiviral activity (HIV-1 plaque formation) (HIV-1 [3]; added before or after infection, in words)	anti-HIV-1 activity (HIV-1 [1])	inhibition at 0.2 µM (HIV-1 [1]; Human immunodeficiency virus 1, 1 h, 0.2 μM, 60 minutes after infection) [%]	inhibition at 0.4 µM (HIV-1 [1]; Human immunodeficiency virus 1, 1 h, 0.4 μM, 60 minutes after infection) [%]	inhibition at 2 µM (HIV-1 [1]; Human immunodeficiency virus 1, 1 h, 2.0 μM, 60 minutes after infection, read-out: Inhibition (%)) [%]	Percent Protein Kinase C Activity Retained (Protein Kinase C; 1.25 μM) [%]	Percent Protein Kinase C Activity Retained (Protein Kinase C; 2.5 μM) [%]	Percent Protein Kinase C Activity Retained (Protein Kinase C; 5.0 μM) [%]	Percent Protein Kinase C Activity Retained (Protein Kinase C; 10.0 μM) [%]	Percent Protein Kinase C Activity Retained (Protein Kinase C; 20.0 μM) [%]	Percent Protein Kinase C Activity Retained (Protein Kinase C; 40.0 μM) [%]
CCCCCCCCCCCCCCCC(=O)OC[C@H](COP(=O)([O-])OCC[N+](C)(C)C)OC(=O)CCCCCCCCCCCCCCC [dipalmitoyl-phosphatidylcholine, reference compound]	> 1360	> 681																		
CCCCCCCCCCCCCCCCSCC(C[N+](C)(C)CCO)OC.[Br-] (racemic) [CJM 57, (±)-3-hexadecylthio-2-methoxy-N,N-dimethyl-N-β-hydroxyethyl-1-propyl ammonium bromide]	0.37 ± 0.01	3.2	4.6	30	38	85	43	83	91	antiviral activity	significant anti-HIV-1 activity	28	59	97						
CCCCCCCCCCCCCCCCOCC(O)(CO)CCCCCCCC (stereo not shown) [J]	> 10	> 20									did not inhibit HIV-1 plaque formation									
CCCCCCCCCCCCCCCCCCSCC(C[N+](C)(C)CCCO)OC (stereo not shown) [I]	0.52 ± 0.33	3.4									significant anti-HIV-1 activity				75	56	49	39	27	23
CCCCCCCCCCCCCCCCSCC(C[N+](C)(C)CCO)OCC (stereo not shown) [B]	0.63 ± 0.18	5.4									significant anti-HIV-1 activity				92	84	70	70	66	47
